Reference: article PMC6934184, “Selective DNA-PKcs inhibition extends the therapeutic index of localized radiotherapy and chemotherapy” (The Journal of Clinical Investigation, 2019)

Target: T1, CHEK2 (CHK2) (Homo sapiens, UniProt O96017)
T1 construct: purchased Thermo Fisher Scientific (Life Technologies) SelectScreen
Assay: SelectScreen Z'LYTE
Format: biochemical
Method in brief: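 Percent values come from Thermo SelectScreen profiling of NU5455, combining activity and binding assays. CSF1R was run in Z'LYTE format at Km app ATP, and CAMK1 in Adapta format with ATP listed at 10.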

T1 sequence (O96017 whole entry): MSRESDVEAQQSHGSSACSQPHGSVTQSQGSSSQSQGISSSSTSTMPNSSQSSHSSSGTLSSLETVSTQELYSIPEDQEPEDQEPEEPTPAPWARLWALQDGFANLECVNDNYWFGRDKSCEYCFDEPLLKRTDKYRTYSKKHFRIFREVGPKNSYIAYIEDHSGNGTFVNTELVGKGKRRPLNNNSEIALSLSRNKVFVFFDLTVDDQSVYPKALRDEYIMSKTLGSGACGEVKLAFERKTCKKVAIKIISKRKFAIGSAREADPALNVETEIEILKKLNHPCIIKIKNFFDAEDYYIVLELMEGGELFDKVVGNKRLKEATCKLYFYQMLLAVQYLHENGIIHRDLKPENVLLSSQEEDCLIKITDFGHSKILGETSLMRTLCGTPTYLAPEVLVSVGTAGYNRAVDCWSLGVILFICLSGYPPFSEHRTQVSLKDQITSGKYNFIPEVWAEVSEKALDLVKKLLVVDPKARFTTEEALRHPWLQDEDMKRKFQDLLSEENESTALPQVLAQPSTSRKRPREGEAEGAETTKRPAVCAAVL

SMILES: CN(C(=O)CN1CCOCC1)c1ccc2sc3c(-c4cccc5c(=O)cc(N6CC7CCC(C6)O7)oc45)cccc3c2c1 [NU5455]
- inhibition at 1 µM: -11.7%
